Reference: patent US20020058244A1, “Method for detecting uracil biosynthesis inhibitors and their use as herbicides” (priority 2000, published 2002)
“Also recorded” adds a separate entry of the source. Where two headings read alike, the source gives them in different places. Each block holds one compound with its values, some of them ahead of it.

What was measured:
[1] = tested on: grass species; assay: Greenhouse herbicide efficacy, preemergence and post-emergence, whole plant injury; assay type: in vivo; settings: preemergence and post-emergence applications
Text: (§1) The compounds were applied to flats containing individually potted plant species as post-emergent treatments, or seeded flats without emerged plants for preemergent treatments. The compounds were delivered in an 80% acetone solution plus 0.2% X-77. After two or three weeks of treatment, plants were rated compared to controls on a scale of 0 to 9 where 0 represents no injury and 9 represents 100% injury.

[2] = tested on: wheat; assay: Greenhouse herbicide efficacy, crop safety; assay type: in vivo; settings: preemergence and post-emergence applications
Text: as §1

[3] = tested on: Arabidopsis; assay: Arabidopsis 96 well microtiter plate injury and reversal test; assay type: in vivo; settings: for reversal of lethal effects by uridine: 100 μM uridine; for uracil biosynthesis inhibitory activity: reversal assay, see Table III
Method: The compounds were tested in a 96 microtiter well plate containing various concentrations of probe compound with or without intermediates of the pyrimidine and purine biosynthesis pathways to detect reversal of injury. Plates were filled with 0.7% agar medium, seeded with Arabidopsis, and placed in a growth chamber for several days to allow for seed germination and plant growth. Arabidopsis plates were rated on a scale from 0 to 9 where 0 represents no injury, and 9 represents no germination. In addition, injury symptoms observed were recorded.

[4] = tested on: uracil biosynthesis pathway; assay: [14C]-carbamoyl aspartate incorporation into uracil/uridine and orotate in soybean cell cultures; assay type: cell-based
Method: Soybean suspension cultures in the linear growth phase were used for [^14C]carbamoyl aspartate uptake and incorporation studies. Cells were treated with 0.01 uM [^14C]carbamoyl aspartate (approximately 200,000-400,000 dpm) with or without 100 uM compound “B”. Over time, aliquots were harvested by filtration, and rinsed thoroughly with potassium phosphate buffer, pH 3.11. Aliquots of uptake media and rinse were counted using a liquid scintillation spectrophotometer to determine percent uptake. Cells were immediately weighed, ground to a fine powder in liquid nitrogen, and suspended in 50% methanol. The homogenate was centrifuged at 10,000 g for 20 min. A portion of the pellet was weighed out and combusted to determine dpm's associated with this fraction. An aliquot of the supernatant was counted to determine the amount of label in the soluble fraction. Recovery of applied radiolabeled [^14C]carbamyol aspartate was 90-100%.
The soluble supernatant was concentrated overnight by lyophilization, and the extract was resuspended in 1 ml potassium phosphate buffer, pH 3.11. For HPLC analysis an anion exchange column was used with 85:15% potassium phosphate buffer, pH 3.11 and acetonitrile as running buffers. Fractions (1 ml) were collected for 20 min (flow rate […]), and counted using a liquid scintillation counter (LSC). UV absorbance was analyzed at 260 and 275 nm as the optimum absorbency wavelengths for UMP and orotate, respectively. Standards were used to identify the various peaks from the HPLC profile. Standard retention times under these conditions were: 3-4 min uracil/uridine, 7-9 min carbamoyl aspartate, 11-13 min UMP, and 17-19 min orotate.

[5] = tested on: OPRTase/ODCase; assay: In vitro enzymatic conversion of [14C]-orotate to UMP, cell free extract from corn root tissue; assay type: biochemical; settings: for effect on OPRTase/ODCase activity (conversion of [14C]-orotate to UMP): cell free extract
Method: (§2) Etiolated corn roots and shoots or soybean suspension cells were used as tissue. Corn seedlings were germinated on vermiculite for 4 days in the dark at 26_C. and roots and shoots harvested separately. The soybean cells were grown in media consisting of Muashige and Skoog salts (Physiol. Plant (1962) 15:473-497) purchased from Gibco/BRL, vitamins (glycine 2 mg/L, thiamine 0.1 mg/L, nicotinic acid 0.5 mg/L, pyridoxine-HCl 0.5 mg/L), myo-inositol (100 mg/L), 2,4-D ([…]), and 30 g/L sucrose. Cell cultures are grown at 25° C. with gentle shaking. Cultures were transfered every 7 days to new growth media.
(§3) Approximately 5-10 g plant tissue were ground in liquid nitrogen and resuspended in 1:2 (w/v) homogenization buffer (30 mM KPO4^−; 25 mM […], 5 mM MgCl2, 5 mM ascorbic acid, pH 7.2). The homogenate was centrifuged at 10,000 g for 20 min, and the supernatant desalted using BioRad columns. The desalted supernatant was used for OPRTase/ODCase enzyme assays. For DHOD enzyme extraction, the supernatant was further centrifuged at 100,000 g for 45 min to obtain a microsomal pellet. The microsomal pellet was resuspended in 3-4 ml resuspension buffer (70 mM Tris-base, pH 7.4) containing 1% Triton X-100.
All enzyme assays were performed according to Rawls, J. M. (1978) Anal. Biochem. 86 (1): 107-117 and Cleaveland et al. (1995). Biochem. Pharm. 49(7):947-954. Enzyme assays were performed in a total volume of 200 ul with 1 uM [^14C]carbamoyl aspartate, [^14C]dihydroorotate or [^14C]orotate as substrates, and 1-5 mM probe compound or barbiturate as inhibitors. The [^14C]carbamoyl aspartate and [^14C]dihydroorotate assay was performed using a potassium phosphate buffer, pH 7.4 with 12 mM NAD^+, and 10 mM MgCl2. […] Over time, 25 ul aliquots were taken from the reaction tube and boiled for 5 min to stop the reaction. Samples were spotted onto cellulose TLC plates and run using 0.1 M potassium phosphate buffer, 100% ammonium sulfate, and 1-propanol (10:6:1). Plates were developed using a TLC plate radioisotope detector. Orotate and UMP standards were run next to unknowns to identify the conversion of [^14C]orotate to [^14C]UMP in the enzyme assay.

[6] = tested on: DHOD; assay: In vitro conversion of [14C]dihydroorotate to orotate, corn root microsomal preparation; assay type: biochemical
Method: as §2, §3
(§4) All enzyme assays were performed according to Rawls, J. M. (1978) Anal. Biochem. 86 (1): 107-117 and Cleaveland et al. (1995). Biochem. Pharm. 49(7):947-954. Enzyme assays were performed in a total volume of 200 ul with 1 uM [^14C]carbamoyl aspartate, [^14C]dihydroorotate or [^14C]orotate as substrates, and 1-5 mM probe compound or barbiturate as inhibitors. The [^14C]carbamoyl aspartate and [^14C]dihydroorotate assay was performed using a potassium phosphate buffer, pH 7.4 with 12 mM NAD^+, and 10 mM MgCl2. The [^14C]orotate enzyme assay was performed using Tris buffer, pH 8.8 with 12 mM PRPP and 10 mM MgCl2. Over time, 25 ul aliquots were taken from the reaction tube and boiled for 5 min to stop the reaction. Samples were spotted onto cellulose TLC plates and run using 0.1 M potassium phosphate buffer, 100% ammonium sulfate, and 1-propanol (10:6:1). Plates were developed using a TLC plate radioisotope detector. Orotate and UMP standards were run next to unknowns to identify the conversion of [^14C]orotate to [^14C]UMP in the enzyme assay.

[7] = tested on: DHO; assay: In vitro conversion of [14C]dihydroorotate to carbamoyl aspartate, corn root microsomal preparation; assay type: biochemical
Method: as §2, §3, §4

[8] = Stability in aqueous solution by mass spectroscopy and NMR; assay type: physicochemical; settings: for half-life: aqueous solution
Method: The stability analysis of the compound “B”, compound “C”, compound “G”, and compound “E” compounds was performed using a Hewlett Packard HP1100 LC system coupled to a Micromass Platfom-LC mass spectrometer operating with an electrospray ionization source. In positive ion electrospray, AC12254 82A produced molecules at m/z 112(M^+), m/z 153 (M+41) at a cone voltage of 30V. Retention time of AC 12254 82A was 12.54 min with absorption maxima of 248 and 314 nm.
Column: Hypersil Spherisorb Waters ODS(2), 3.6×150 mm
Eluent: 60% acetonitrile, 40% water (0.1% formic acid)
Photodiode Array Detection: Scan Range: 190-600 nm
1H NMR was taken in DMSO-d6 on a 500 MHZ Bruker NMR Spectrometer. […] Each had 5 protons as follows: NH, 2OH and 2 CH.

[9] = biological target: T1, ODCase (Rattus norvegicus, UniProt A0ACM8Q7Z8); settings: rat brain tissue; cited from earlier work
T1 construct: host or cells: rat brain tissue
T1 sequence (A0ACM8Q7Z8 entry or part of it): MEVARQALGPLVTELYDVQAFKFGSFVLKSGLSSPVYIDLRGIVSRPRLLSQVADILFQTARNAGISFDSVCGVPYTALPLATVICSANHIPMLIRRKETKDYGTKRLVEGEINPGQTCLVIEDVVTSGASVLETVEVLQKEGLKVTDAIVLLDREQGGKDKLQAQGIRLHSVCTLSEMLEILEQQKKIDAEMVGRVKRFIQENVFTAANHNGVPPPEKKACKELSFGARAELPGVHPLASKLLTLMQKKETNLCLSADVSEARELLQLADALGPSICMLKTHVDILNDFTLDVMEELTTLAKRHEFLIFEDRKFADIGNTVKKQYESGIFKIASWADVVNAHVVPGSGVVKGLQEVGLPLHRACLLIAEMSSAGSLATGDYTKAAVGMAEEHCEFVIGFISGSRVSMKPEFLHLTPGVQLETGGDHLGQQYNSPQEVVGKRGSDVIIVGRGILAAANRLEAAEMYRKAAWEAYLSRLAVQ

- IC50 ([4]; Glycine max, soybean cell cultures, estimated, read-out: IC50 of inhibition of [14C]-carbamoyl aspartate incorporation): ~50 µM
- half-life [8]: < 24 h
Compound: O=C1NN=C/C1=C/Nc1ccc(F)cc1F [B, 4-[[(2,4-difluorophenyl)amino]methylene]-2,4-dihydro-3H-pyrazol-3-one]
- herbicidal effect, injury [1]: ≥ 50%
- crop safety [2]: safety on wheat
- germination of Arabidopsis seeds ([3]; 1 μM): normal germination
- germination of Arabidopsis seeds ([3]; 16 μM): partial germination
- growth inhibition ([3]; 30 uM combined with 100 uM uracil): 0%
- germination of Arabidopsis seeds ([3]; 50 μM): not observed
- germination of Arabidopsis seeds ([3]; 100 μM): not observed
- reversal of injury by uracil, UMP and uridine ([3]; 100 uM antidote in growth media): reversed
- reversal of lethal effects by uridine ([3]; highest tested concentration of compound): does not reverse
- reversal of lethal effects by uridine ([3]; lower concentrations of compound (Rows 2-4)): reversed
- germination of Arabidopsis seeds ([3]; 500 μM): not observed
- inhibition at 30 µM ([3]; Arabidopsis thaliana, 30 uM, compound alone, read-out: growth inhibition): 50%
- IC50 ([3]; Arabidopsis thaliana, 96 well microtiter plate, read-out: estimated IC50 on Arabidopsis): 30 µM
- reversal of herbicidal effects by orotate or OMP ([3]; in vivo): did not reverse
- reversal of herbicidal effects by vitamins or purines ([3]; in vivo): Neither vitamins nor purines reversed
- reversal of lethal effects by adenine, cytosine, guanine, and thymidine ([3]; in vivo): did not reverse
- incorporation of radiolabeled carbamoyl aspartate into uracil/uridine ([4]; 50 μM): 25%
- incorporation of radiolabeled carbamoyl aspartate into uracil/uridine ([4]; 100 μM): 10%
- incorporation of [14C]-carbamoyl aspartate into orotate peak (16-19 min) ([4]; 100 uM, HPLC profile FIG. 6): 70%
- incorporation of radiolabeled carbamoyl aspartate into uracil/uridine ([4]; 100 μM, listed as probe compound): 19%
- incorporation of radiolabeled carbamoyl aspartate into orotic acid ([4]; 1 and 10 μM): 0-5%
- incorporation of radiolabeled carbamoyl aspartate into uracil/uridine ([4]; 1 and 10 μM): 80-90%
- incorporation of radiolabeled carbamoyl aspartate into orotic acid ([4]; 50 and 100 μM): 45-60%
- radiolabeled orotate converted to UMP ([5]; 15 minutes after treatment, 100 μM PRPP, untreated control 55%): 55%
- effect on OPRTase/ODCase activity (conversion of [14C]-orotate to UMP) [5]: does not affect
- effect on OPRTase/ODCase activity (conversion of [14C]-orotate to UMP) ([5]; listed as probe compound): did not inhibit
- effect on DHOD activity (dihydroorotate converted to orotate) versus untreated control [6]: no difference
- effect on DHOD activity (dihydroorotate converted to orotate) versus untreated control ([6]; listed as probe compound): did not inhibit
- effect on DHO activity (dihydroorotate converted to carbamoyl aspartate) versus untreated control [7]: no difference
- effect on DHO activity (dihydroorotate converted to carbamoyl aspartate) versus untreated control ([7]; listed as probe compound): did not inhibit

Compound: O=c1cnn([C@@H]2O[C@H](CO)[C@@H](O)[C@H]2O)c(=O)[nH]1 [Compound 6-Azauridine, 6-Azauridine, reference compound]
- effect on OPRTase/ODCase activity (conversion of [14C]-orotate to UMP) [5]: not shown to inhibit

Compound: O=c1[nH][nH]cc1C=NO [D, 2,3-dihydro-3-oxo-1H-pyrazole-4-carboxaldehyde-4-oxime]
- effect on DHOD activity (dihydroorotate converted to orotate) versus untreated control [6]: no difference
- effect on DHO activity (dihydroorotate converted to carbamoyl aspartate) versus untreated control [7]: no difference

Compound: CN(C)C=C1C=NNC1=O [E, 4-[(dimethylamino)methylene]-2,4-dihydro-3H-pyrazol-3-one]
- uracil biosynthesis inhibitory activity [3]: significant
- stability in aqueous solution [8]: stable in aqueous solution with no hydrolysis detected; also recorded: stable

- stability in aqueous solution [8]: relatively stable
- half-life [8]: > 24 h
Compound: CN1N=CC(=CNc2ccc(F)cc2F)C1=O [G, 4-[[(2,4-difluorophenyl)amino]methylene]-2,4-dihydro-2-methyl-3H-pyrazol-3-one]
- uracil biosynthesis inhibitory activity [3]: only marginal

Compound: O=C(O)C1C=NNC1=O (stereo not shown) [J, 4,5-dihydro-5-oxo-1H-pyrazole-4-carboxylic acid; or 2,3-dihydro-3-oxo-1H-pyrazole-4-carboxylic acid]
- effect on DHOD activity (dihydroorotate converted to orotate) versus untreated control [6]: no difference
- effect on DHO activity (dihydroorotate converted to carbamoyl aspartate) versus untreated control [7]: no difference

Compound: O=C1CC(=O)N([C@@H]2O[C@H](COP(=O)(O)O)[C@@H](O)[C@H]2O)C(=O)N1 [ribotide of barbiturate]
- Ki [9]: 0.0041 µM
